# Key:
# Format in all cases: cell-based
# [1] = system: HEK293 clonal cell line overexpressing APOL1 G1; test: APOL1 G1 HEK293 cell rescue assay (Example B3); details: Homo sapiens, HEK293, HEK293 clonal line overexpressing APOL1 G1; geometric mean of at least 2 runs; † = single run; ¥ = concentration at 50% rescue estimated (no sigmoidal curve)
# Summary of the method: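 HEK293 clonal line overexpressing APOL1 G1; EC50 is half-maximal reversal of APOL1-induced cell death. Values are the geometric mean of ≥2 runs on separate days, each run the average of duplicate wells. Where no sigmoidal curve could be fitted, the concentration giving 50% rescue was estimated.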
# [2] = system: Trypanosoma brucei Lister 427 VSG221 with APOL1 G1 recombinant protein; test: APOL1 G1 trypanosome cell rescue assay (Example B5); details: Trypanosoma brucei, 20 h, read-out: APOL1 G1 Trypanosome Rescue EC50, Trypanosoma brucei Lister 427 VSG221 with APOL1 G1 recombinant protein, 20 hours, CellTiter-Glo; geometric mean of at least 2 assay runs; † = single assay run
# Summary of the method: (§1)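 Mature APOL1 (residues 28-398, E. coli-expressed, His-tag removed by TEV) was added as a 2 μg/mL solution to T. brucei Lister 427 VSG221 in modified HMI-9 medium at 250 cells/well, with duplicate 11-point 2-fold compound dilutions (0.4% DMSO). After 20 h at 37° C, 5% CO2, viability was read by CellTiter-Glo luminescence.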
# [3] = system: Trypanosoma brucei Lister 427 VSG221 with APOL1 G2 recombinant protein; test: APOL1 G2 trypanosome cell rescue assay (Example B5); details: Trypanosoma brucei, 20 h, read-out: APOL1 G2 Trypanosome Rescue EC50, Trypanosoma brucei Lister 427 VSG221 with APOL1 G2 recombinant protein, 20 hours, CellTiter-Glo; geometric mean of at least 2 assay runs; † = single assay run
# Summary of the method: as §1
smiles,measurement,setting,value
"CN(c1c(F)cc(OCCN2CCC3(CC2)C(=O)Nc2ccc(Cl)cc23)cc1F)S(C)(=O)=O [Compound 127, N-[4-(2-{5-chloro-2-oxo-1,2-dihydrospiro[indole-3,4′-piperidin]-1′-yl}ethoxy)-2,6-difluorophenyl]-N-methylmethanesulfonamide]",EC50,[1],0.061 µM
same,EC50,[2],0.0839 µM
same,EC50,[3],0.0294 µM
"CN(c1c(F)cc(OCCN2CCC3(CC2)C(=O)Nc2ccc(C#N)cc23)cc1F)S(C)(=O)=O [Compound 128, N-[4-(2-{5-cyano-2-oxo-1,2-dihydrospiro[indole-3,4′-piperidin]-1′-yl}ethoxy)-2,6-difluorophenyl]-N-methylmethanesulfonamide]",EC50,[1],0.158 µM
same,EC50,[2],0.383 µM
same,EC50,[3],0.133 µM
"Cc1cc(OCCN2CCC3(CC2)C(=O)Nc2ccc(Cl)cc23)cc(C)c1S(C)(=O)=O [Compound 129, 5-chloro-1′-[2-(4-methanesulfonyl-3,5-dimethylphenoxy)ethyl]-1,2-dihydrospiro[indole-3,4′-piperidin]-2-one]",EC50,[1],0.0728 µM
same,EC50,[2],0.0695 µM
same,EC50,[3],0.0222 µM
"Cn1c(=O)oc2cc(OCCN3CCC4(CC3)C(=O)Nc3ccc(Cl)cc34)ccc21 [Compound 131, 5-chloro-1′-{2-[(3-methyl-2-oxo-2,3-dihydro-1,3-benzoxazol-6-yl)oxy]ethyl}-1,2-dihydrospiro[indole-3,4′-piperidin]-2-one]",EC50,[1],0.186 µM
same,EC50,[2],0.176 µM
same,EC50,[3],0.0478 µM
"Cn1c(=O)oc2cc(OCCN3CCC4(CC3)C(=O)Nc3ccc(C#N)cc34)ccc21 [Compound 132, 1′-{2-[(3-methyl-2-oxo-2,3-dihydro-1,3-benzoxazol-6-yl)oxy]ethyl}-2-oxo-1,2-dihydrospiro[indole-3,4′-piperidine]-5-carbonitrile]",EC50,[1],0.685 µM
same,EC50,[2],0.731 µM
same,EC50,[3],0.18 µM
"CS(=O)(=O)C1(c2c(F)cc(OCCN3CCC4(CC3)C(=O)Nc3ccc(Cl)cc34)cc2F)COC1 [Compound 136, 5-chloro-1′-{2-[3,5-difluoro-4-(3-methanesulfonyloxetan-3-yl)phenoxy]ethyl}-1,2-dihydrospiro[indole-3,4′-piperidin]-2-one]",EC50,[1],0.0494 µM
same,EC50,[2],0.0371 µM
same,EC50,[3],0.0143 µM
"CC(c1c(F)cc(OCCN2CCC3(CC2)C(=O)Nc2ccc(C#N)cc23)cc1F)S(C)(=O)=O (stereo not drawn) [Compound 137, 1′-{2-[3,5-difluoro-4-(1-methanesulfonylethyl)phenoxy]ethyl}-2-oxo-1,2-dihydrospiro[indole-3,4′-piperidine]-5-carbonitrile]",EC50,[1],0.249 µM
same,EC50,[2],0.454 µM
same,EC50,[3],0.119 µM
"Cc1cc(OCCN2CCC3(CC2)C(=O)Nc2ccc(C#N)cc23)cnc1S(C)(=O)=O [Compound 140, 1′-{2-[(6-methanesulfonyl-5-methylpyridin-3-yl)oxy]ethyl}-2-oxo-1,2-dihydrospiro[indole-3,4′-piperidine]-5-carbonitrile]",EC50,[1],0.6 µM
same,EC50,[2],0.653 µM
same,EC50,[3],0.164 µM
"CC(C)N1C(=O)Cc2cc(OCCN3CCC4(CC3)C(=O)Nc3ccc(C#N)cc34)ccc21 [Compound 144, 2-oxo-1′-(2-{[2-oxo-1-(propan-2-yl)-2,3-dihydro-1H-indol-5-yl]oxy}ethyl)-1,2-dihydrospiro[indole-3,4′-piperidine]-5-carbonitrile]",EC50,[1],0.246 µM
same,EC50,[2],0.358 µM
same,EC50,[3],0.101 µM
"CC(C)N1C(=O)Cc2cc(OCCN3CCC4(CC3)C(=O)Nc3ccc(Cl)cc34)ccc21 [Compound 145, 5-chloro-1′-(2-{[2-oxo-1-(propan-2-yl)-2,3-dihydro-1H-indol-5-yl]oxy}ethyl)-1,2-dihydrospiro[indole-3,4′-piperidin]-2-one]",EC50,[1],0.0985 µM
same,EC50,[2],0.118 µM
same,EC50,[3],0.0355 µM
"CN1Cc2cc(OCCN3CCC4(CC3)C(=O)Nc3ccc(Cl)cc34)ccc2C1=O [Compound 146, 5-chloro-1′-{2-[(2-methyl-1-oxo-2,3-dihydro-1H-isoindol-5-yl)oxy]ethyl}-1,2-dihydrospiro[indole-3,4′-piperidin]-2-one]",EC50,[1],0.221 µM
same,EC50,[2],0.427 µM
same,EC50,[3],0.119 µM
"CN=S(C)(=O)c1ccc(OCCN2CCC3(CC2)C(=O)Nc2ccc(Cl)cc23)cc1 (stereo not drawn) [Compound 147, 5-chloro-1′-(2-{4-[methyl(methylimino)oxo-λ^6-sulfanyl]phenoxy}ethyl)-1,2-dihydrospiro[indole-3,4′-piperidin]-2-one]",EC50,[1],0.183 µM
same,EC50,[2],0.231 µM
same,EC50,[3],0.0654 µM
"CN=S(C)(=O)c1ccc(OCCN2CCC3(CC2)C(=O)Nc2ccc(C#N)cc23)cc1 (stereo not drawn) [Compound 150, 1′-(2-{4-[methyl(methylimino)oxo-λ^6-sulfanyl]phenoxy}ethyl)-2-oxo-1,2-dihydrospiro[indole-3,4′-piperidine]-5-carbonitrile]",EC50,[1],1.54 µM
same,EC50,[2],2.29 µM
same,EC50,[3],0.519 µM
"CN1CCc2cc(OCCN3CCC4(CC3)C(=O)Nc3ccc(Cl)cc34)ccc2S1(=O)=O [Compound 153, 6-(2-{5-chloro-2-oxo-1,2-dihydrospiro[indole-3,4′-piperidin]-1′-yl}ethoxy)-2-methyl-3,4-dihydro-2H-1λ^6,2-benzothiazine-1,1-dione]",EC50,[1],0.0962 µM
same,EC50,[2],0.0667 µM
same,EC50,[3],0.0256 µM
"CN1CCc2cc(OCCN3CCC4(CC3)C(=O)Nc3ccc(C#N)cc34)ccc2S1(=O)=O [Compound 154, 1′-{2-[(2-methyl-1,1-dioxo-3,4-dihydro-2H-1λ^6,2-benzothiazin-6-yl)oxy]ethyl}-2-oxo-1,2-dihydrospiro[indole-3,4′-piperidine]-5-carbonitrile]",EC50,[1],0.252 µM
same,EC50,[2],0.569 µM
same,EC50,[3],0.16 µM
"CS(=O)(=O)c1ccc(OCCN2CCC3(CC2)C(=O)Nc2ccc(Cl)cc23)cc1Cl [Compound 155, 5-chloro-1′-[2-(3-chloro-4-methanesulfonylphenoxy)ethyl]-1,2-dihydrospiro[indole-3,4′-piperidin]-2-one]",EC50,[1],0.067 µM
same,EC50,[2],0.0361 µM
same,EC50,[3],0.00965 µM
"CS(=O)(=O)c1ccc(OCCN2CCC3(CC2)C(=O)Nc2ccc(C#N)cc23)cc1Cl [Compound 156, 1′-[2-(3-chloro-4-methanesulfonylphenoxy)ethyl]-2-oxo-1,2-dihydrospiro[indole-3,4′-piperidine]-5-carbonitrile]",EC50,[1],0.153 µM
same,EC50,[2],0.154 µM
same,EC50,[3],0.0448 µM
"CC(C)(C#N)c1ccc(OCCN2CCC3(CC2)C(=O)Nc2ccc(C#N)cc23)cc1 [Compound 157, 1′-{2-[4-(1-cyano-1-methylethyl)phenoxy]ethyl}-2-oxo-1,2-dihydrospiro[indole-3,4′-piperidine]-5-carbonitrile]",EC50,[1],0.152 µM
same,EC50,[2],0.142 µM
same,EC50,[3],0.0451 µM
"CC1(S(=O)(=O)c2ccc(OCCN3CCC4(CC3)C(=O)Nc3ccc(Cl)cc34)cn2)COC1 [Compound 158, 5-chloro-1′-[2-({6-[(3-methyloxetan-3-yl)sulfonyl]pyridin-3-yl}oxy)ethyl]-1,2-dihydrospiro[indole-3,4′-piperidin]-2-one]",EC50,[1],0.252 µM
same,EC50,[2],0.142 µM
same,EC50,[3],0.0459 µM
"CS(=O)(=O)C1(c2ccc(OCCN3CCC4(CC3)C(=O)N(CCO)c3ccc(Cl)cc34)cc2)COC1 [Compound 160, 5-chloro-1-(2-hydroxyethyl)-1′-{2-[4-(3-methanesulfonyloxetan-3-yl)phenoxy]ethyl}-1,2-dihydrospiro[indole-3,4′-piperidin]-2-one]",EC50,[1],0.244 µM
same,EC50,[2],0.156 µM
same,EC50,[3],0.0423 µM

# Source: patent US12344610B2, “APOL1 inhibitors and methods of use” (Maze Therapeutics, Inc., priority 2022, dated 2025)
